Here are results for 2 molecules from US9814709B2, “Bruton's tyrosine kinase inhibitor” (HEFEI INSTITUTES OF PHYSICAL SCIENCE, CHINESE ACADEMY OF …, priority 2014, dated 2017).

The subject of assay [1] is human non-small cell lung cancer cells H460 (expressing wild-type EGFR gene). In words: Cancer cell growth, Cell Titer-Glo. The format is cell-based. To be noted: NCI-H460, H460, 72 hrs, read-out: Half inhibitory concentration IC50. The source says:
(§1) We further assessed the selectivity of Compound 1 to inhibit the proliferation of cancer cells, by testing the effect of Btk inhibitor on the growth of cancer cells. In the example, we used B-lymphoma cell Ramos, cervical cancer cells HeLa, prostate cancer cells DU145, RV-1 and C4-2, colon cancer cells HCT116, blood cancer cells K562, B-cell lymphoma cells U2932, diffuse large B-cell lymphoma cells OCI-LY10, diffuse histiocytic lymphoma cells SU-DHL-2, diffuse large B-cell lymphoma cells TMD8, human non-small cell lung cancer cells H1975 (expressing EGFR L858R/T790M double mutant gene), human lung adenocarcinoma cells A549 (expressing wild-type EGFR gene), human non-small cell lung cancer cells H460 (expressing wild-type EGFR gene), mantel cell lymphoma (MCL) cells Z-138, EB virus infected human peripheral lymphocyte cells JVM-2, MCL cells REC-1, leukemia cells AML-3, acute promyelocytic leukemia cell line NB-4(Lu+), MDS-RAEB (myelodysplastic syndrome-excessive blasts) cell line SKM-1 human leukemia cell Nomo-1, human B-cell leukemia cell line NALM6, human leukocyte leukemia cells HEL, human T-cell lymphoma cells PF-382, acute myelocytic leukemia (AML) cell line MOLM14, AML cell line MOLM13, human Burkitt's lymphoma cells Namalwa, mouse pro-B cells BaF3, all of where were purchased from ATCC. Also used were mouse TEL-EGFR-BaF3 (stably expressing TEL-EGFR activated kinase), mouse TEL-EGFR/T790-BaF3 cells (stably expressing TEL-EGFR-T790M activated mutant kinase), mouse TEL-EGFR/L858R-BaF3 cells (stably expressing TEL-EGFR-L858R activated mutant kinase), mouse TEL-EGFR/T790/L858R-BaF3 (stably expressing TEL-EGFR-T790M/L858R activated mutant kinase), mouse TEL-BMX-BaF3 cells (stably expressing TEL-BMX activated kinase), mouse TEL-JAK1-BaF3 cells (stably expressing TEL-JAK1 activated kinase), mouse TEL-JAK2-BaF3 cells (stably expressing TEL-JAK2 activated kinase), mouse TEL-JAK3-BaF3 cells (stably expressing TEL-JAK3 activated kinase), where were all established by our laboratory via the following method: the kinase domain sequences of human EGFR, BMX, JAK1, JAK2, JAK3 were amplified respectively by PCR, and these kinase were inserted into the MSCV-Puro vectors with N-terminal TEL segment (Clontech); if there was a mutation, the mutation of the corresponding site was conducted by Site-Directed Mutagenesis kit (Stratagene); the resultants were stably transfected into mouse BaF3 cells by the means of retrovirus, and the IL-3 growth factors were removed, and eventually the EGFR, BMX, JAK1, JAK2, JAK3-transferred protein dependent cell lines were obtained.
(§2) In the example, different concentrations (0.000508 μM, 0.00152 μM, 0.00457 μM, 0.0137 μM, 0.0411 μM, 0.123 μM, 0.370 μM, 1.11 μM, 3.33 μM, 10 μM) of Compound 1 and Compound 19 were added into above cells, and were incubated for 72 hrs. The number of viable cells was determined by quantitating ATP in viable cells using Cell Titer-Glo® (Promega, U.S.) chemiluminescence cell viability assay kit.
(In general: Cellular ATP, detected with luciferase, serves as a proxy for viable cell number.)

A further assay relates to leukemia cells AML-3. In words: Cancer cell growth, Cell Titer-Glo. The format is cell-based. The following applies: AML3; AML-3, 72 hrs; read-out: Half inhibitory concentration IC50.
Source text: as §1, §2

Assay [2] deals with B-cell lymphoma cells U2932. Briefly: Cancer cell growth, Cell Titer-Glo. To be noted: Homo sapiens; U2932, 72 hrs; read-out: Half inhibitory concentration IC50. The format is cell-based.
Source text: as §1, §2

Assay [3] relates to diffuse histiocytic lymphoma cells SU-DHL-2. Briefly: Cancer cell growth, Cell Titer-Glo. The format is cell-based. To be noted: Homo sapiens; SU-DHL-2, 72 hrs; read-out: Half inhibitory concentration IC50.
Source text: as §1, §2

Assay [4] deals with human lung adenocarcinoma cells A549 (expressing wild-type EGFR gene). In words: Cancer cell growth, Cell Titer-Glo. The following applies: A549, 72 hrs, read-out: Half inhibitory concentration IC50. The format is cell-based.
Source text: as §1, §2

Assay [5] deals with acute promyelocytic leukemia cell line NB-4(Lu+). Briefly: Cancer cell growth, Cell Titer-Glo. The format is cell-based. The following applies: 72 hrs, read-out: Half inhibitory concentration IC50.
Source text: as §1, §2

In assay [6] the test system is cervical cancer cells HeLa. In words: Cancer cell growth, Cell Titer-Glo. The format is cell-based. The following applies: Homo sapiens, 72 hrs, read-out: Half inhibitory concentration IC50.
Source text: as §1, §2

In another assay the target is T1, BTK WT protein (Homo sapiens, UniProt Q06187).
T1 construct: made in house; host or cells: 293T cells
T1 sequence (Q06187 whole entry): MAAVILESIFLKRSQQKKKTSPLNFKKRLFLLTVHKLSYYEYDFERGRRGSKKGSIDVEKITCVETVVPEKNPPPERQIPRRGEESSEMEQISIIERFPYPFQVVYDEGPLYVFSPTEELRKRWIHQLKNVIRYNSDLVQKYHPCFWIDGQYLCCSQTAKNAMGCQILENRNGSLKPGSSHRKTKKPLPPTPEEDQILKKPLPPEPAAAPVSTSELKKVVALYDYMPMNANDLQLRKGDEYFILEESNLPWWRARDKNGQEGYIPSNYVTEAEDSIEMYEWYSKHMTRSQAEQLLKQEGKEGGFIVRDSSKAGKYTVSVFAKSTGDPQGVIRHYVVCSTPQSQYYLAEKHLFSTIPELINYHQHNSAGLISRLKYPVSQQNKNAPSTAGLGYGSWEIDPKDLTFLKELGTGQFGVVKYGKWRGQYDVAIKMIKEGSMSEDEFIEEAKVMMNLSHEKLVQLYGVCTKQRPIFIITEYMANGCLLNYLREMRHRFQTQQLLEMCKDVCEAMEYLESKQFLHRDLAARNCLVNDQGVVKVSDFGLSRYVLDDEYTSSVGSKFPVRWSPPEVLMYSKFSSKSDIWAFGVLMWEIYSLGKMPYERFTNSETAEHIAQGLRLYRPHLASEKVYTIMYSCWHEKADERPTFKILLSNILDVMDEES
Briefly: Btk acellular kinase assay, BTK WT protein purified from transfected 293T cells. The format is biochemical. To be noted: 100 μM ATP. The procedure:
(§3) The BTK wild-type plasmid and the BTK mutant plasmid (C481S) were respectively transfected into 293T cells (purchased from ATCC), and the resultant cells were marked as BTK WT 293T cells and BTK C481S 293T cells, respectively. After cell culture for 2 days, the cells were harvested and purified to give BTK WT and BTK C481S proteins. The compounds of formula (I) were added to the BTK WT and BTK C481S proteins at different concentrations of 3 nM, 10 nM, 30 nM, 100 nM, 300 nM and 1000 nM, respectively, and reacted at room temperature for 30 min, followed by the addition of 100 μM ATP at 37° C. and reacting for 20 min.

In the next assay the target is BTK (Homo sapiens, UniProt Q06187). Briefly: Phosphorylation of BTK in IL2-stimulated PBMC, Western Blot. The following applies: 3.5 hours, then 20 ng/mL IL2 30 min. Details: endogenous in cells; host or cells: human peripheral blood mononuclear cells (PBMC). The format is cell-based. The method, then: In order to test the effect of Compound 1 on human cells, a peripheral blood mononuclear cell (PBMC) culture system with BTK signal being activated by in vitro stimulation was introduced. The phenomena occurred in the clinical patients were simulated by stimulating PBMC of a normal human with IL2 to activate the BTK signal. PBMC cells were seeded in 6-well plate and Compound 1 of different concentrations (0, 0.01, 0.1, 1 μM), 1 μM of PCI-32765 and 1 μM of Compound 19 were added; 3.5 hours later after the administration, the samples were stimulated with 20 ng/ML IL2 for 30 min and then were collected. Western Blot assay was performed. […] The negative control Compound 19 had no effect on the phosphorylation of BTK.
BTK, sequence (Q06187 whole entry): as above
Background: A western blot detects proteins with antibodies after separation by electrophoresis.

A further assay addresses T2, BTK C481S protein (Homo sapiens, UniProt Q06187, C481S).
T2 construct: made in house; host or cells: 293T cells
Briefly: Btk acellular kinase assay, BTK C481S mutant protein purified from transfected 293T cells. To be noted: 3-1000 nM, 100 μM ATP. The format is biochemical. The method, then: as §3

T2 sequence (Q06187 whole entry C481S): as the sequence (Q06187 whole entry) above, with C481S counted along it

With `C=CC(=O)Nc1cc(-n2c(=O)ccc3cnc4ccc(-n5cccn5)cc4c32)ccc1C` [Compound 1, N-(2-methyl-5-(2-oxo-9-(1H-pyrazol-1-yl)benzo[H][1,6]naphthyridin-1(2H)-yl)phenyl)acrylamide], the IC50 was > 10 µM in assay [1]; 7.3 µM with leukemia cells AML-3; 1.15 µM in assay [2]; 5.02 µM in assay [3]; 3.76 µM in assay [4]; 3.7 µM in assay [5]. Besides, the IC50 in assay [6] is > 10 µM; against BTK WT protein (30 min room temperature preincubation, 37° C., 20 min) it was 0.056 µM. The “effect on phosphorylation of BTK in PBMCs” value on BTK (1 μM) is “comparative to that of the positive control”; at BTK (0.01, 0.1, 1 μM, some dose-dependency), “significantly inhibited”. Besides, the “inhibitory effect on BTK C481S” value at BTK C481S protein is on record as “no inhibition”.
As for `CCC(=O)Nc1cc(-n2c(=O)ccc3cnc4ccc(-n5cccn5)cc4c32)ccc1C` [Compound 19, N-(2-methyl-5-(2-oxo-9-(1H-pyrazol-1-yl)benzo[H][1,6]naphthyridin-1(2H)-yl)phenyl) propionamide], the IC50 (in assay [1]; with leukemia cells AML-3; in assay [2]; in assay [3]; in [4]; in assay [5]) was > 10 µM each time. Besides, the IC50 in [6] is > 10 µM. Also, the “inhibitory effect on BTK WT” value against BTK WT protein (3-1000 nM) was “no inhibitory effect”. Further, the “effect on phosphorylation of BTK in PBMCs” value at BTK (1 μM) was “no effect”. For the same molecule, the “inhibitory effect on BTK C481S” value at BTK C481S protein is given as “no inhibitory effect”.
